This note sets out measurements from ChEMBL document CHEMBL3856221, “Structural modifications of the serotonin 5-HT7 receptor agonist N-(4-cyanophenylmethyl)-4-(2-biphenyl)-1-piperazinehexanamide (LP-211) to improve in vitro microsomal stability: A case study” (Eur J Med Chem, 2016).

The structures appear in SMILES notation. The source made the active and inactive calls. No cut-off for these calls is given here.

The target of data set [1] is T1, 5-hydroxytryptamine receptor 1A (Homo sapiens, UniProt P08908).
T1 sequence (P08908 whole entry): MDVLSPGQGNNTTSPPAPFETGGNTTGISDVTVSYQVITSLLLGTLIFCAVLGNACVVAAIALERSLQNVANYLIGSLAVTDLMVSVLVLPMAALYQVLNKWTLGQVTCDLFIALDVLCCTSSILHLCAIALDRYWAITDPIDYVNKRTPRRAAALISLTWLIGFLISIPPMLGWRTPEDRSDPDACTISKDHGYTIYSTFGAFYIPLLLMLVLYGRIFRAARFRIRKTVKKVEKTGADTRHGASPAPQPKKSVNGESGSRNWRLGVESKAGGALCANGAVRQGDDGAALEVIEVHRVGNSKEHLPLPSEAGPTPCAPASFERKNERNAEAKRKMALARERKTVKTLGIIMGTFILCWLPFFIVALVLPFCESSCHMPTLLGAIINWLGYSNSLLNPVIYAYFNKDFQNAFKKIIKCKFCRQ
Kind of data set: Displacement of [3H]-8-OH-DPAT from human 5-HT1A receptor expressed in HEK293 cell membranes after 1 hr by microbeta counting analysis. (Loss of bound radioactivity is the signal in a displacement assay; it reports binding, not function.)

A short description of data set [2]: Retention factor, logKw of compound in MeOH/0.01 M phosphate buffer at pH 7.4 by RP-HPLC method. It is filed as physicochemical.
The target in data set [3] is T2, D(2) dopamine receptor (Homo sapiens, UniProt P14416). Kind of data set: Displacement of [3H]raclopride from human dopamine D2L receptor expressed in HEK293 cell membranes after 1 hr by microbeta counting analysis. Format: cell-based.
T2 sequence (P14416 whole entry): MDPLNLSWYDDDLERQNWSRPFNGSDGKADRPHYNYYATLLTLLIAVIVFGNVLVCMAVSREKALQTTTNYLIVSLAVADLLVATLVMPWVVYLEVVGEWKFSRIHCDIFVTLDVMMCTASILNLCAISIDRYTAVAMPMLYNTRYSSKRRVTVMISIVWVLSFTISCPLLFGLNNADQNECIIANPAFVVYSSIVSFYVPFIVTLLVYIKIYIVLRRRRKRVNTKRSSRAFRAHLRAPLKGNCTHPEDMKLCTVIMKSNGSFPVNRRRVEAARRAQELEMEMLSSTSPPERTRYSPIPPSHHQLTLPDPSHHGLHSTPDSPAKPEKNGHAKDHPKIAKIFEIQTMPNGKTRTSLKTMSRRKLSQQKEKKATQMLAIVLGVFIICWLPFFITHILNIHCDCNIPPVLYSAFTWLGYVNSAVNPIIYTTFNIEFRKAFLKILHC
In data set [4] the target is 5-hydroxytryptamine receptor 7 (Homo sapiens, UniProt P34969). Kind of data set: Displacement of [3H]-5-CT from human 5-HT7b receptor expressed in HEK293 cell membranes after 1 hr by microbeta counting analysis.
Sequence of 5-hydroxytryptamine receptor 7 (P34969 whole entry): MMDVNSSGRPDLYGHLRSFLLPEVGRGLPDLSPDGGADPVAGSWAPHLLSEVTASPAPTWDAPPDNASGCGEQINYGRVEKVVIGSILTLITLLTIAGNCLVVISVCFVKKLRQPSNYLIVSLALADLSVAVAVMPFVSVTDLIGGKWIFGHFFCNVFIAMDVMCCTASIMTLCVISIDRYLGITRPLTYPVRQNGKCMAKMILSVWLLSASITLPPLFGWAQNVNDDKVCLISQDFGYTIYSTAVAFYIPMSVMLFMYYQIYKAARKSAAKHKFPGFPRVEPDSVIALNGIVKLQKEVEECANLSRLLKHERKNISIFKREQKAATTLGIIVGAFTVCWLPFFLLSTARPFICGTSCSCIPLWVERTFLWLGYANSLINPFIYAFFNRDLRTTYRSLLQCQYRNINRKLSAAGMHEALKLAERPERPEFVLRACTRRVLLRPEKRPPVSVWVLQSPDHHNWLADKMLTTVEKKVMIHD
Data set [5] concerns the target T3, 5-hydroxytryptamine receptor 6 (Homo sapiens, UniProt P50406). In words: Displacement of [3H]-LSD from human 5-HT6 receptor expressed in HEK293 cell membranes after 1 hr by microbeta counting analysis.
Data set [6] can be described thus: Half life in mouse liver microsomes in presence of NADPH by liquid chromatographic method. It is filed as ADME. Conditions: for half-life: liver microsomes. In general terms: Liver microsomes are vesicles of endoplasmic reticulum, rich in cytochrome P450 enzymes.
Data set [7] is described as follows: Stability in mouse liver microsomes assessed as oxidative metabolism by measuring drug recovery at 10 uM preincubated for 10 mins followed by NADPH addition measured after 30 mins by liquid chromatographic method. Format: ADME. Conditions: for remaining at 0.5 h, 10 µM: liver microsomes, read-out: Drug recovery.
Data set [8] in a line: Displacement of [3H]-prazosin from adrenergic alpha 1 receptor in pig brain cortical membranes after 50 mins by microbeta counting analysis. It is filed as ADME, cell membranes, Sus scrofa.
Data set [9] can be described thus: Ratio of drug uptake in CD-1 mouse brain to plasma at 10 mg/kg, ip administered as single dose by LC/MS analysis. It is filed as ADME, organism-based. Conditions: read-out: BPR.
Data set [10] can be described thus: Elimination half life in CD-1 mouse brain at 10 mg/kg, ip administered as single dose by LC/MS analysis. To be noted: read-out: beta t1/2 (converted). Format: ADME, organism-based.
In data set [11] the target is 5-hydroxytryptamine receptor 7 (Mus musculus) (UniProt P32304). Kind of data set: Agonist activity at 5-HT7 receptor in embryonic day 15 C57BL/6 mouse cortex assessed as increase in neurite length at 20 nM up to 24 hrs by DAPI staining based microscopy. It is filed as tissue-based.
Sequence of 5-hydroxytryptamine receptor 7 (Mus musculus) (P32304 whole entry): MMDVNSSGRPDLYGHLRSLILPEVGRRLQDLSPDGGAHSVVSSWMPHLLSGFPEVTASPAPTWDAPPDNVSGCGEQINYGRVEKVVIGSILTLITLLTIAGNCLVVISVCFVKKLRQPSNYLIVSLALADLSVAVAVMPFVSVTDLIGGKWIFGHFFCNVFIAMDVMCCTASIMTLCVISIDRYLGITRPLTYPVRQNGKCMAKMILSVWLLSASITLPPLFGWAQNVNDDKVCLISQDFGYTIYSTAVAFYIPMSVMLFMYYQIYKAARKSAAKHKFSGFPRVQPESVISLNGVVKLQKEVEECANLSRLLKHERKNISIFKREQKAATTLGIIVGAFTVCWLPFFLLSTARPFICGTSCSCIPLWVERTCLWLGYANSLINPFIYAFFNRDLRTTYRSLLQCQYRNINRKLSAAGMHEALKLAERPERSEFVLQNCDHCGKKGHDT
Data set [12] in a line: Cmax in CD-1 mouse plasma at 10 mg/kg, ip administered as single dose after 30 mins by LC/MS analysis. Format: ADME, organism-based. Further details: dose 10 mg/kg, route intraperitoneal.
The target in data set [13] is 5-hydroxytryptamine receptor 7 (Mus musculus) (UniProt P32304). Kind of data set: Agonist activity at 5-HT7 receptor in embryonic day 15 C57BL/6 mouse cortex assessed as increase in neurite length at 20 nM after 30 mins by DAPI staining based microscopy relative to control. It is filed as tissue-based.
Data set [14] can be described thus: Drug uptake in CD-1 mouse plasma at 10 mg/kg, ip administered as single dose measured up to 4 hrs by LC/MS analysis. Format: ADME, organism-based. To be noted: in vivo.
The target in data set [15] is 5-hydroxytryptamine receptor 7 (Mus musculus) (UniProt P32304). Kind of data set: Agonist activity at 5-HT7 receptor in embryonic day 15 C57BL/6 mouse striatum assessed as increase in neurite length at 20 nM up to 4 hrs by DAPI staining based microscopy relative to control.
Data set [16] in a line: Cmax in CD-1 mouse brain at 10 mg/kg, ip administered as single dose after 30 mins by LC/MS analysis. It is filed as ADME, organism-based. More on the design: dose 10 mg/kg, route intraperitoneal.
A short description of data set [17]: Elimination half life in CD-1 mouse plasma at 10 mg/kg, ip administered as single dose by LC/MS analysis. Format: ADME, organism-based. To be noted: read-out: beta t1/2 (converted).
The target in data set [18] is 5-hydroxytryptamine receptor 7 (Mus musculus) (UniProt P32304). Kind of data set: Agonist activity at 5-HT7 receptor in embryonic day 15 C57BL/6 mouse striatum assessed as increase in neurite length at 20 nM after 30 mins by DAPI staining based microscopy relative to control.
A short description of data set [19]: Half life in ip dosed mouse. To be noted: in vivo.
For data set [20], the target named is T3, 5-hydroxytryptamine receptor 6. Kind of data set: Displacement of [3H]-LSD from human 5-HT6 receptor after […] by cell based assay.
Data set [21] concerns the target T2, D(2) dopamine receptor. In words: Binding affinity to dopamine D2 receptor (unknown origin).

T3 sequence (P50406 whole entry): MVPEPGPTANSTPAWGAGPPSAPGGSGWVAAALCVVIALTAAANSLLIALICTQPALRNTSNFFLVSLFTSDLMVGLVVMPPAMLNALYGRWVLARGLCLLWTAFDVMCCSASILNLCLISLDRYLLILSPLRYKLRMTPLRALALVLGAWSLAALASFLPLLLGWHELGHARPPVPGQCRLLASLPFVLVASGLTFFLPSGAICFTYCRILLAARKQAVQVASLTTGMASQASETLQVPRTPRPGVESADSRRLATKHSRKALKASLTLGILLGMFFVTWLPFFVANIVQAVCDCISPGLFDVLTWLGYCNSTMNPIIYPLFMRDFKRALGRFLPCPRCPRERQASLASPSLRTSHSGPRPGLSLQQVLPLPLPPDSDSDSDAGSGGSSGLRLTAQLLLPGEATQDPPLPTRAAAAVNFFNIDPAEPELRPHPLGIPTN

In general, Ki refers to a measure of affinity in units of concentration, obtained from inhibition or displacement. A higher Ki goes with a looser hold on the target. In the case of `COc1ccc(-c2ccccc2N2CCN(CCCCCC(=O)N[C@H](C)c3ccc(C#N)cc3)CC2)cc1`, the Ki in data set [1] came out at 109 nM; at D(2) dopamine receptor [3] it was 243 nM; in data set [4], 12 nM; in data set [5] it was 843 nM; in data set [8], 17.8 nM. In addition, the logKw in data set [2] is given as 0.54. Also, the half-life in [6] stood at 23 min. Further, the remaining at 0.5 h, 10 µM in [7] came to 26%.
For `COc1ccc(-c2ccccc2N2CCN(CCCCCC(=O)NCc3ccc(C#N)cc3)CC2)cc1`, the Ki in data set [1] was determined as 126 nM; at D(2) dopamine receptor [3], 293 nM; in data set [4], 8 nM; in data set [5], 745 nM; in data set [8] it was 30 nM. The same molecule had a logKw in [2] of 0.54. The half-life in data set [6] amounted to 18 min. In addition, the remaining at 0.5 h, 10 µM in [7] came to 25%.
A word on the Cmax: it is the maximum level reached in the sampled fluid or tissue. With `COc1ccc(-c2cc(F)ccc2N2CCN(CCCCCC(=O)NCc3ccc(C#N)cc3)CC2)cc1`, the Ki in data set [1] turned out to be 771 nM; on D(2) dopamine receptor [3] it was 522 nM; in [4], 25.5 nM; in [5], 614 nM; in [8], 6.6 nM. Moreover, in [9], the Kp was determined as 0.5. Further, the logKw in data set [2] is listed as 0.52. Moreover, the figures for the half-life in [10] and in data set [17] were 61.2 min and 64.2 min, respectively. Also, the outcome in data set [11] was Active. Also, the values for the highest concentration (Cmax) in [12] and in data set [16] were 1170 ng/mL and 515 ng/mL, respectively. Moreover, the Activity turned out to be 130% in [13], 126% in data set [15] and 124% in data set [18]. In addition, the Drug uptake entry in data set [14] was “Active”. In addition, the t1/2 in data set [6] (microsomes) is 45 min. Besides, the Drug recovery in data set [7] (microsomes, 0.5 h, 10 µM) amounted to 27%.
Consider `N#Cc1ccc(CNC(=O)CCCCCN2CCN(c3ccc(F)cc3-c3ccc(C#N)cc3)CC2)cc1`, for which the inhibition constant (Ki) in [1] stood at 2870 nM; on D(2) dopamine receptor [3], 1380 nM; in [4], 27 nM; in data set [5], 927 nM; in [8] it was 3.2 nM. Moreover, the logKw in data set [2] worked out at 0.23. Besides, the half-life in [6] is 26 min. The remaining at 0.5 h, 10 µM in [7] was 22%.
Consider `O=C1CCc2ccc(OCCCCN3CCN(c4cccc(Cl)c4Cl)CC3)cc2N1` [ARIPIPRAZOLE], for which the half-life in data set [19] is 264 min.
Turning to `COc1ccc(-c2ccccc2N2CCN(CCCCCC(=O)N[C@@H](C)c3ccc(C#N)cc3)CC2)cc1`, the Ki was found to be 147 nM in data set [1]; 308 nM on D(2) dopamine receptor [3]; 19 nM in data set [4]; 700 nM in data set [5]; 12.9 nM in data set [8]. Besides, in [2], the logKw is given as 0.59. For the same molecule, the half-life in data set [6] was 29 min. For the same molecule, the remaining at 0.5 h, 10 µM in data set [7] was found to be 24%.
`N#Cc1ccc(CNC(=O)CCCCCN2CCN(c3ccccc3-c3ccccc3)CC2)cc1`: in [2], the logKw is on record as 0.58. For the same molecule, in data set [7], the remaining at 0.5 h, 10 µM was determined as 20%. The results for the inhibition constant Ki (in [20]; at D(2) dopamine receptor [21]) were 1570 nM and 242 nM, respectively.
Take `COc1ccc(-c2ccccc2N2CCN(CCCCCC(=O)N[C@H](C)c3ccccc3)CC2)cc1`: the Ki in data set [1] was 134 nM; on D(2) dopamine receptor [3], 295 nM; in data set [4] it was 11.5 nM; in data set [5] it was 721 nM; in data set [8], 36 nM. Besides, the logKw in data set [2] was found to be 0.71. Also, the remaining at 0.5 h, 10 µM in data set [7] lay in the range of 0.7 to 3%.
As for `COCOc1ccc(CNC(=O)CCCCCN2CCN(c3ccccc3-c3ccccc3)CC2)cc1`, the Ki in data set [1] was determined as 86 nM; at D(2) dopamine receptor [3] it was 36 nM; in data set [4] it was 4.5 nM; in data set [5], 413 nM; in [8], 20 nM. The molecule also displayed a logKw in [2] of 0.44. Moreover, the remaining at 0.5 h, 10 µM in data set [7] amounted to 5.4%.
Consider `O=C(CCCCCN1CCN(c2ccccc2-c2ccccc2)CC1)NCc1ccc(OCCN2CCOCC2)cc1`, for which the Ki in data set [1] stood at 160 nM; on D(2) dopamine receptor [3], 136 nM; in data set [4] it was 16 nM; in data set [5] it was 1720 nM; in [8] it was 7.4 nM. Further, the logKw in data set [2] worked out at 0.59. Moreover, in data set [7], the remaining at 0.5 h, 10 µM stood at 5%.
As to `C[C@H](NC(=O)CCCCCN1CCN(c2ccccc2-c2ccccc2)CC1)c1ccccc1`, the inhibition constant Ki was found to be 66 nM in [1]; 53 nM at D(2) dopamine receptor [3]; 10 nM in [4]; 480 nM in data set [5]; 46.4 nM in [8]. In data set [2], this molecule displayed a logKw of 0.75. The remaining at 0.5 h, 10 µM in data set [7] was found to be 16%.
